{"source": "ChEMBL document CHEMBL1145073", "about": "“DNA binding ligands targeting drug-resistant bacteria: structure, activity, and pharmacology” (J Med Chem, 2003)"}
{"test_system": "Mus musculus", "experiment": "Acute tolerability of compound in 4 ICR female mice after intravenous administration was determined; Lethality 1/4", "assay_type": "functional, organism-based", "settings": "not given"}
{"smiles": "Cn1cc(NC(=O)c2cc(NC(=O)c3cc(NC(=O)c4cn5ccsc5n4)cn3C)cn2C)cc1C(=O)NCCN1CCOCC1", "Acute tolerability": "Lethality 1/4"}
{"test_system": "Mus musculus", "experiment": "Acute tolerability of compound in 5 ICR female mice after intravenous administration was determined; Lethality 1/5", "settings": "not given"}
{"smiles": "Cn1cc(NC(=O)c2cc(NC(=O)c3cc(NC(=O)c4sccc4Cl)cn3C)cn2C)cc1C(=O)NCCN1CCC(F)CC1", "Acute tolerability": "Lethality 1/5"}
{"test_system": "not listed separately", "experiment": "In vitro antimicrobial activity against penicillin-intermediate Streptococcus pneumoniae 49619", "assay_type": "functional", "settings": "not given", "units": {"MIC": "µg/mL"}}
{"smiles": "CN(C)CCCNC(=O)c1cc(NC(=O)c2cc(NC(=O)c3cc(NC(=O)c4sccc4Cl)cn3C)cn2C)cn1C", "MIC": 4}
{"smiles": "Cn1cc(NC(=O)c2cc(NC(=O)c3cc(NC(=O)c4sccc4Cl)cn3C)cn2C)cc1C(=O)NCCN1CCCCC1", "MIC": 0.25}
{"smiles": "Cn1cc(NC(=O)c2cc(NC(=O)c3cc(NC(=O)c4cn5ccsc5n4)cn3C)cn2C)cc1C(=O)NCCN1CCOCC1", "MIC": 0.031}
{"smiles": "Cn1cc(NC(=O)c2cc(NC(=O)c3cc(-c4ccc(Cl)cc4F)cn3C)cn2C)cc1C(=O)NCCN1CCOCC1", "MIC": 0.25}
{"smiles": "Cn1cc(NC(=O)c2cc(NC(=O)c3cc(-c4sccc4Cl)cn3C)cn2C)cc1C(=O)NCCN1CCOCC1", "MIC": 0.125}
{"smiles": "Cn1cc(NC(=O)c2cc(NC(=O)c3cc(NC(=O)c4sccc4Cl)cn3C)cn2C)cc1C(=O)NCCCN1CCCCC1", "MIC": 4}
{"smiles": "Cn1cc(NC(=O)c2cc(NC(=O)c3cc(NC(=O)c4sccc4Cl)cn3C)cn2C)cc1C(=O)NCCN1CCC(F)CC1", "MIC": 0.031}
{"test_system": "Mus musculus", "experiment": "Acute tolerability of compound […] female mice after intravenous administration was determined; Lethality 3/5", "assay_type": "functional, organism-based", "settings": "not given"}
{"smiles": "Cn1cc(NC(=O)c2cc(NC(=O)c3cc(NC(=O)c4sccc4Cl)cn3C)cn2C)cc1C(=O)NCCCN1CCCCC1", "Acute tolerability": "Lethality 3/5"}
{"test_system": "Enterococcus faecalis", "experiment": "In vitro antimicrobial activity against vancomycin-resistant Enterococcus faecalis 51559", "settings": "not given", "units": {"MIC": "µg/mL"}}
{"smiles": "Cn1cc(NC(=O)c2cc(NC(=O)c3cc(NC(=O)c4sccc4Cl)cn3C)cn2C)cc1C(=O)NCCN1CCCCC1", "MIC": 2}
{"smiles": "Cn1cc(NC(=O)c2cc(NC(=O)c3cc(NC(=O)c4sccc4Cl)cn3C)cn2C)cc1C(=O)NCCCN1CCCCC1", "MIC": 16}
{"test_system": "Enterococcus faecalis", "experiment": "In vitro antimicrobial activity against vancomycin-susceptible Enterococcus faecalis 29212", "assay_type": "functional", "settings": "not given", "units": {"MIC": "µg/mL"}}
{"smiles": "CN(C)CCCNC(=O)c1cc(NC(=O)c2cc(NC(=O)c3cc(NC(=O)c4sccc4Cl)cn3C)cn2C)cn1C", "MIC": 16}
{"smiles": "Cn1cc(NC(=O)c2cc(NC(=O)c3cc(NC(=O)c4sccc4Cl)cn3C)cn2C)cc1C(=O)NCCN1CCCCC1", "MIC": 0.5}
{"smiles": "Cn1cc(NC(=O)c2cc(NC(=O)c3cc(NC(=O)c4cn5ccsc5n4)cn3C)cn2C)cc1C(=O)NCCN1CCOCC1", "MIC": 0.5}
{"smiles": "Cn1cc(NC(=O)c2cc(NC(=O)c3cc(-c4ccc(Cl)cc4F)cn3C)cn2C)cc1C(=O)NCCN1CCOCC1", "MIC": 0.5}
{"smiles": "Cn1cc(NC(=O)c2cc(NC(=O)c3cc(-c4sccc4Cl)cn3C)cn2C)cc1C(=O)NCCN1CCOCC1", "MIC": 1}
{"smiles": "Cn1cc(NC(=O)c2cc(NC(=O)c3cc(NC(=O)c4sccc4Cl)cn3C)cn2C)cc1C(=O)NCCCN1CCCCC1", "MIC": 4}
{"smiles": "Cn1cc(NC(=O)c2cc(NC(=O)c3cc(NC(=O)c4sccc4Cl)cn3C)cn2C)cc1C(=O)NCCN1CCC(F)CC1", "MIC": 1}
{"test_system": "Candida albicans", "experiment": "(§1) In vitro antimicrobial activity against Candida albicans 38247", "assay_type": "functional", "settings": "not given", "units": {"MIC": "µg/mL"}}
{"smiles": "Cn1cc(NC(=O)c2cc(NC(=O)c3cc(-c4sccc4Cl)cn3C)cn2C)cc1C(=O)NCCN1CCOCC1", "MIC": "> 32"}
{"test_system": "Candida albicans", "experiment": "as §1", "assay_type": "functional", "settings": "Candida albicans; read-out: MIC", "units": {"MIC": "µg/mL"}}
{"smiles": "Cn1cc(NC(=O)c2cc(NC(=O)c3cc(NC(=O)c4sccc4Cl)cn3C)cn2C)cc1C(=O)NCCN1CCCCC1", "MIC": 32}
{"smiles": "Cn1cc(NC(=O)c2cc(NC(=O)c3cc(NC(=O)c4cn5ccsc5n4)cn3C)cn2C)cc1C(=O)NCCN1CCOCC1", "MIC": "> 32"}
{"smiles": "Cn1cc(NC(=O)c2cc(NC(=O)c3cc(-c4ccc(Cl)cc4F)cn3C)cn2C)cc1C(=O)NCCN1CCOCC1", "MIC": "> 32"}
{"smiles": "Cn1cc(NC(=O)c2cc(NC(=O)c3cc(NC(=O)c4sccc4Cl)cn3C)cn2C)cc1C(=O)NCCCN1CCCCC1", "MIC": "> 32"}
{"smiles": "Cn1cc(NC(=O)c2cc(NC(=O)c3cc(NC(=O)c4sccc4Cl)cn3C)cn2C)cc1C(=O)NCCN1CCC(F)CC1", "MIC": "> 32"}
{"test_system": "Bacillus cereus", "experiment": "In vitro antimicrobial activity against Bacillus cereus 11778", "assay_type": "functional", "settings": "not given", "units": {"MIC": "µg/mL"}}
{"smiles": "Cn1cc(NC(=O)c2cc(NC(=O)c3cc(NC(=O)c4sccc4Cl)cn3C)cn2C)cc1C(=O)NCCN1CCCCC1", "MIC": 0.5}
{"smiles": "Cn1cc(NC(=O)c2cc(NC(=O)c3cc(NC(=O)c4cn5ccsc5n4)cn3C)cn2C)cc1C(=O)NCCN1CCOCC1", "MIC": 2}
{"smiles": "Cn1cc(NC(=O)c2cc(NC(=O)c3cc(-c4ccc(Cl)cc4F)cn3C)cn2C)cc1C(=O)NCCN1CCOCC1", "MIC": 0.5}
{"smiles": "Cn1cc(NC(=O)c2cc(NC(=O)c3cc(-c4sccc4Cl)cn3C)cn2C)cc1C(=O)NCCN1CCOCC1", "MIC": 1}
{"smiles": "Cn1cc(NC(=O)c2cc(NC(=O)c3cc(NC(=O)c4sccc4Cl)cn3C)cn2C)cc1C(=O)NCCCN1CCCCC1", "MIC": 8}
{"smiles": "Cn1cc(NC(=O)c2cc(NC(=O)c3cc(NC(=O)c4sccc4Cl)cn3C)cn2C)cc1C(=O)NCCN1CCC(F)CC1", "MIC": 1}
{"test_system": "Mus musculus", "experiment": "Acute tolerability of compound […] female mice after intravenous administration was determined; Lethality 5/5", "assay_type": "functional, organism-based", "settings": "not given"}
{"smiles": "Cn1cc(NC(=O)c2cc(NC(=O)c3cc(-c4ccc(Cl)cc4F)cn3C)cn2C)cc1C(=O)NCCN1CCOCC1", "Acute tolerability": "Lethality 5/5"}
{"target": "Nucleic Acid", "experiment": "Apparent binding affinity against DNA (5'-ACAATTAA-3') was determined using DNase I footprinting titration method", "assay_type": "nucleic-acid assay", "settings": "read-out: Kd app", "units": {"Kd": "nM"}}
{"smiles": "CN(C)CCCNC(=O)c1cc(NC(=O)c2cc(NC(=O)c3cc(NC(=O)c4sccc4Cl)cn3C)cn2C)cn1C", "Kd": 5}
{"smiles": "Cn1cc(NC(=O)c2cc(NC(=O)c3cc(NC(=O)c4sccc4Cl)cn3C)cn2C)cc1C(=O)NCCN1CCCCC1", "Kd": 5}
{"smiles": "Cn1cc(NC(=O)c2cc(NC(=O)c3cc(-c4ccc(Cl)cc4F)cn3C)cn2C)cc1C(=O)NCCN1CCOCC1", "Kd": 0.1}
{"smiles": "Cn1cc(NC(=O)c2cc(NC(=O)c3cc(-c4sccc4Cl)cn3C)cn2C)cc1C(=O)NCCN1CCOCC1", "Kd": 20}
{"smiles": "Cn1cc(NC(=O)c2cc(NC(=O)c3cc(NC(=O)c4sccc4Cl)cn3C)cn2C)cc1C(=O)NCCCN1CCCCC1", "Kd": 50}
{"smiles": "Cn1cc(NC(=O)c2cc(NC(=O)c3cc(NC(=O)c4sccc4Cl)cn3C)cn2C)cc1C(=O)NCCN1CCC(F)CC1", "Kd": 5}
{"test_system": "Mus musculus", "experiment": "Acute tolerability of compound […] female mice after intravenous administration was determined; 5/5 lethargy", "assay_type": "functional, organism-based", "settings": "not given"}
{"smiles": "Cn1cc(NC(=O)c2cc(NC(=O)c3cc(NC(=O)c4sccc4Cl)cn3C)cn2C)cc1C(=O)NCCN1CCCCC1", "Acute tolerability": "5/5 lethargy"}
{"test_system": "Mus musculus", "experiment": "Acute tolerability of compound in 4 ICR female mice after intravenous administration was determined; no adverse effects", "assay_type": "functional, organism-based", "settings": "not given"}
{"smiles": "Cn1cc(NC(=O)c2cc(NC(=O)c3cc(-c4sccc4Cl)cn3C)cn2C)cc1C(=O)NCCN1CCOCC1", "Acute tolerability": "no adverse effects"}
{"test_system": "Staphylococcus aureus", "experiment": "In vitro antimicrobial activity against methicillin resistant Staphylococcus aureus 27660", "assay_type": "functional", "settings": "not given", "units": {"MIC": "µg/mL"}}
{"smiles": "CN(C)CCCNC(=O)c1cc(NC(=O)c2cc(NC(=O)c3cc(NC(=O)c4sccc4Cl)cn3C)cn2C)cn1C", "MIC": 8}
{"smiles": "Cn1cc(NC(=O)c2cc(NC(=O)c3cc(NC(=O)c4sccc4Cl)cn3C)cn2C)cc1C(=O)NCCN1CCCCC1", "MIC": 0.5}
{"smiles": "Cn1cc(NC(=O)c2cc(NC(=O)c3cc(-c4ccc(Cl)cc4F)cn3C)cn2C)cc1C(=O)NCCN1CCOCC1", "MIC": 2}
{"smiles": "Cn1cc(NC(=O)c2cc(NC(=O)c3cc(-c4sccc4Cl)cn3C)cn2C)cc1C(=O)NCCN1CCOCC1", "MIC": 4}
{"smiles": "Cn1cc(NC(=O)c2cc(NC(=O)c3cc(NC(=O)c4sccc4Cl)cn3C)cn2C)cc1C(=O)NCCCN1CCCCC1", "MIC": 8}
{"smiles": "Cn1cc(NC(=O)c2cc(NC(=O)c3cc(NC(=O)c4sccc4Cl)cn3C)cn2C)cc1C(=O)NCCN1CCC(F)CC1", "MIC": 1}
{"test_system": "not listed separately", "experiment": "In vitro antimicrobial activity against penicillin resistant Streptococcus pneumoniae 51422", "assay_type": "functional", "settings": "not given", "units": {"MIC": "µg/mL"}}
{"smiles": "Cn1cc(NC(=O)c2cc(NC(=O)c3cc(NC(=O)c4sccc4Cl)cn3C)cn2C)cc1C(=O)NCCN1CCCCC1", "MIC": 2}
{"smiles": "Cn1cc(NC(=O)c2cc(NC(=O)c3cc(-c4ccc(Cl)cc4F)cn3C)cn2C)cc1C(=O)NCCN1CCOCC1", "MIC": 0.062}
{"smiles": "Cn1cc(NC(=O)c2cc(NC(=O)c3cc(-c4sccc4Cl)cn3C)cn2C)cc1C(=O)NCCN1CCOCC1", "MIC": 0.125}
{"smiles": "Cn1cc(NC(=O)c2cc(NC(=O)c3cc(NC(=O)c4sccc4Cl)cn3C)cn2C)cc1C(=O)NCCCN1CCCCC1", "MIC": 16}
{"smiles": "Cn1cc(NC(=O)c2cc(NC(=O)c3cc(NC(=O)c4sccc4Cl)cn3C)cn2C)cc1C(=O)NCCN1CCC(F)CC1", "MIC": 0.125}
{"test_system": "Enterococcus faecalis", "experiment": "In vitro antimicrobial activity against vancomycin-resistant Enterococcus faecalis 51559", "assay_type": "functional", "settings": "not given", "units": {"MIC": "µg/mL"}}
{"smiles": "Cn1cc(NC(=O)c2cc(NC(=O)c3cc(-c4ccc(Cl)cc4F)cn3C)cn2C)cc1C(=O)NCCN1CCOCC1", "MIC": 0.5}
{"smiles": "Cn1cc(NC(=O)c2cc(NC(=O)c3cc(-c4sccc4Cl)cn3C)cn2C)cc1C(=O)NCCN1CCOCC1", "MIC": 1}
{"smiles": "Cn1cc(NC(=O)c2cc(NC(=O)c3cc(NC(=O)c4sccc4Cl)cn3C)cn2C)cc1C(=O)NCCN1CCC(F)CC1", "MIC": 0.5}
